Assays:
[1] = biological target: T1, FimHL (Escherichia coli, UniProt P08191); assay: Differential scanning fluorimetry (DSF) with purified FimHL; assay type: binding; details: FimHL 10 μM with mannoside 100 μM, SYPRO Orange, HEPES pH 7.5; Tm from Boltzmann fit
T1 construct: Purified FimHL (10 μM) in the absence or presence of mannoside (100 μM)
Method: Purified FimHL (10 μM) in the absence or presence of mannoside (100 μM) was combined with 5×SYPRO Orange in a 50 μl reaction mixture buffered in 20 mM HEPES pH 7.5, 150 mM NaCl (HBS) and 0.4% DMSO. Binding equilibria were established by allowing the reaction mixtures to incubate at 23° C. for 30 min. These reaction mixtures were then placed in 96-well clear-bottom PCR plates and subjected to a melt curve from 20-90° C. in 0.5° C. increments of 15 seconds, each followed by a fluorescence read of the “HEX” channel in a Bio-Rad CFX96 thermocycler (Bio-Rad, Hercules, Calif.). Melt curves were fitted to the Boltzmann equation (y=A2+(A1−A2)/(1+exp((x−xo)/dx)) where xo is the Tm) to determine the melting temperature (Tm) using GraphPad Prism 6 (San Diego Calif.). Melting temperatures are represented as the mean and standard error of two biological replicates, each of which consisted of three technical replicates. Compounds not listed were not tested.

[2] = test system: UTI89 bacteria; assay: Biofilm inhibition assay with UTI89 bacteria; assay type: cell-based; details: read-out: Biofilm prevention IC50
Method: The biofilm inhibition assay was performed with UTI89 bacteria as previously described (L. Cegelski, J. S. Pinkner, N. D. Hammer, C. K. Cusumano, C. S. Hung, E. Chorell, V. Aberg, J. N. Walker, P. C. Seed, F. Almqvist, M. R. Chapman, S. J. Hultgren Nature Chem. Biol. 2009, 5, 913-919). Compounds not listed were not tested.

[3] = biological target: T2, FimH (Escherichia coli, UniProt Q1R2J4); assay type: cell-based; details: concentration reducing bacterial agglutination of guinea pig red blood cells by greater than 90%; UTI89 bacteria
T2 construct: performed with UTI89 bacteria and guinea pig red blood cells; endogenous in cells; host or cells: UTI89 bacteria (whole cells, type 1 piliated)
Method: The hemagglutination inhibition (HAI) assay was performed with UTI89 bacteria and guinea pig red blood cells, as previously described (S. J. Hultgren, W. R. Schwan, A. J. Schaeffer, J. L. Duncan Infect. Immun. 1986, 54, 613-620).

Cc1cc(-c2cccc3cnccc23)ccc1[C@@H](O)[C@H]1O[C@H](CO)[C@@H](O)[C@H](O)[C@@H]1O [Example 1, (2R,3S,4S,5S,6R)-2-((R)-hydroxy(4-(isoquinolin-5-yl)-2-methylphenyl)methyl)-6-(hydroxymethyl)tetrahydro-2H-pyran-3,4,5-triol]
DSF Melting Temp [1]: 74.6 °C
IC50 [2]: 600 nM
HAI titer EC>90 [3]: 0.125 µM

Cc1cc(-c2ccc3cc[nH]c(=O)c3c2)ccc1[C@@H](O)[C@H]1O[C@H](CO)[C@@H](O)[C@H](O)[C@@H]1O [Example 2, 7-(4-((R)-hydroxy((2R,3S,4S,5S,6R)-3,4,5-trihydroxy-6-(hydroxymethyl)tetrahydro-2H-pyran-2-yl)methyl)-3-methylphenyl)isoquinolin-1 (2H)-one]
DSF Melting Temp [1]: 77.5 °C
IC50 [2]: 30 nM
HAI titer EC>90 [3]: 0.006 µM

Cc1cc(-c2ccc3ccnc(N)c3c2)ccc1[C@@H](O)[C@H]1O[C@H](CO)[C@@H](O)[C@H](O)[C@@H]1O [Example 3, (2R,3S,4S,5S,6R)-2-((R)-(4-(1-aminoisoquinolin-7-yl)-2-methylphenyl)(hydroxy)methyl)-6-(hydroxymethyl)tetrahydro-2H-pyran-3,4,5-triol]
DSF Melting Temp [1]: 77.7 °C
IC50 [2]: 40 nM
HAI titer EC>90 [3]: 0.006 µM

Cc1cc(-c2ccc3c(c2)C(=O)NCC3)ccc1[C@@H](O)[C@H]1O[C@H](CO)[C@@H](O)[C@H](O)[C@@H]1O [Example 4, 7-(4-((R)-hydroxy((2R,3S,4S,5S,6R)-3,4,5-trihydroxy-6-(hydroxymethyl)tetrahydro-2H-pyran-2-yl)methyl)-3-methylphenyl)-3,4-dihydroisoquinolin-1 (2H)-one]
DSF Melting Temp [1]: 76.06 °C
IC50 [2]: 40 nM
HAI titer EC>90 [3]: 0.008 µM

Cc1cc(-n2cc(-c3cccnc3)nn2)ccc1[C@@H](O)[C@H]1O[C@H](CO)[C@@H](O)[C@H](O)[C@@H]1O [Example 49, (2R,3S,4S,5S,6R)-2-((R)-hydroxy(2-methyl-4-(4-(pyridin-3-yl)-1H-1,2,3-triazol-1-yl)-phenyl)methyl)-6-(hydroxymethyl)tetrahydro-2H-pyran-3,4,5-triol]
HAI titer EC>90 [3]: 0.015 µM

Cc1cc(-c2cccc(C#N)c2)ccc1[C@@H](O)[C@H]1O[C@H](CO)[C@@H](O)[C@H](O)[C@@H]1O [Example 51, 4′-((R)-hydroxy((2R,3S,4S,5S,6R)-3,4,5-trihydroxy-6-(hydroxymethyl)tetrahydro-2H-pyran-2-yl)methyl)-3′-methylbiphenyl-3-carbonitrile]
HAI titer EC>90 [3]: 0.026 µM
